{"source": "patent US12459974B2", "about": "“Bicyclic peptide ligands specific for Nectin-4” (priority 2018, dated 2025)", "key": {"[1]": {"test_system": "Panc2.13 xenograft", "experiment": "Example 3: in vivo efficacy in Panc2.13 xenograft (pancreatic cancer model) in Balb/c nude mice", "set-up": "species or system Mus Musculus"}, "[2]": {"test_system": "Panc2.13 xenograft", "experiment": "Example 9.7: in vivo efficacy in Panc2.13 xenograft in Balb/c nude mice", "conditions": "for Tumor volume: iv", "experimental": "The major endpoint was to see if the tumor growth could be delayed or mice could be cured. Tumor volume was measured three times weekly in two dimensions using a caliper, and the volume was expressed in mm^3 using the formula: V=0.5 a×b^2 where a and b are the long and short diameters of the tumor, respectively. The tumor size was then used for calculations of T/C value. The T/C value (in percent) is an indication of antitumor effectiveness; T and C are the mean volumes of the treated and control groups, respectively, on a given day. TGI was calculated for each group using the formula: TGI (%)=[1−(Ti−T0)/(Vi−V0)]×100; Ti is the average tumor volume of a treatment group on a given day, T0 is the average tumor volume of the treatment group on the day of treatment start, Vi is the average tumor volume of the vehicle control group on the same day with Ti, and V0 is the average tumor volume of the vehicle group on the day of treatment start.\nA one-way ANOVA was performed to compare tumor volume among groups, and when a significant F-statistics (a ratio of treatment variance to the error variance) was obtained, comparisons between groups were carried out with Games-Howell test. All data were analyzed using GraphPad Prism 5.0. P<0.05 was considered to be statistically significant.\n• Species: Mus Musculus • Strain: Balb/c nude • Age: 6-8 weeks • Sex: female • Body weight: 18-22 g • Number of animals: 41 mice plus spare 3.1.2.\nThe Panc2.13 tumor cells will be maintained in RMPI1640 medium supplemented with 15% heat inactivated fetal bovine serum and 10 units/ml human recombinant insulin at 37° C. in an atmosphere of 5% CO2 in air. The tumor cells will be routinely subcultured twice weekly. The cells growing in an exponential growth phase will be harvested and counted for tumor inoculation.\nEach mouse was inoculated subcutaneously at the right flank with Panc2.13 tumor cells (5×10^6 with Matrigel (1:1) in 0.2 ml of PBS for tumor development. 41 animals were randomized when the average tumor volume reached 149 mm^3. The test article administration and the animal numbers in each group were shown in the experimental design table.\nTumor growth inhibition rate for Test articles in the Panc2.13 xenograft model was calculated based on tumor volume measurements at day 14 after the start of treatment."}}, "note": "*1 amine or outer side, *2 acyl side, *3 side chain or, on linkers, in order; H or OH if unused. Where a SMILES comes first, the peptide text is derived from it. Bridges are numbered along the chain shown (N, C = ends). Roman numbers before positions name the chains, in order. [ ]: non-standard residue; d: D form. The star is where a group is joined. ξ: configuration not given here. TATA = O=C(CC[*:1])N1CN(C(=O)CC[*:2])CN(C(=O)CC[*:3])C1; Dolaproine = CO[C@@H]([C@@H]1CCCN1)[C@@H](C)C(=O)O; X1 = CC[C@H](C)C(C(CC(=O)[*:2])OC)N(C)[*:1]; 1Nal = N[C@@H](Cc1cccc2ccccc12)C(=O)O; X3 = O=C(CCCC(=O)[*:2])NCCC(=O)[*:1]; PABC = O=C(OCc1ccc(N[*:1])cc1)[*:2]; Hyp = O=C(O)[C@@H]1C[C@@H](O)CN1; hArg = N=C(N)NCCCC[C@H](N)C(=O)O; Cit = NC(=O)NCCC[C@H](N)C(=O)O; X2 = CC(N*)[C@@H](O)c1ccccc1; ξNMeV = CNC(C(=O)O)C(C)C; ξV = CC(C)C(N)C(=O)O; Sar = CNCC(=O)O", "data": [{"smiles": "CC[C@H](C)C(C(CC(=O)N1CCC[C@H]1[C@H](OC)[C@@H](C)C(=O)NC(C)[C@@H](O)c1ccccc1)OC)N(C)C(=O)[C@@H](NC(=O)C(C(C)C)N(C)C(=O)OCc1ccc(NC(=O)[C@H](CCCNC(N)=O)NC(=O)C(NC(=O)CCCC(=O)NCCC(=O)N(C)CC(=O)N(C)CC(=O)N(C)CC(=O)N(C)CC(=O)N(C)CC(=O)N(C)CC(=O)N(C)CC(=O)N(C)CC(=O)N(C)CC(=O)N(C)CC(=O)N[C@H]2CSCCC(=O)N3CN4CN(C3)C(=O)CCSC[C@H](NC(=O)[C@@H](CC(=O)O)NC(=O)[C@H](Cc3cccc5ccccc35)NC(=O)[C@@H]3CCCN3C2=O)C(=O)N[C@@H](CCSC)C(=O)N[C@@H](CCCCNC(=N)N)C(=O)N[C@@H](CC(=O)O)C(=O)N[C@@H](Cc2c[nH]c3ccccc23)C(=O)N[C@@H](CO)C(=O)N[C@@H]([C@@H](C)O)C(=O)N2CCC[C@H]2C(=O)N2C[C@H](O)C[C@H]2C(=O)N[C@@H](Cc2c[nH]c3ccccc23)C(=O)N[C@H](C(N)=O)CSCCC4=O)C(C)C)cc1)C(C)C", "note": "(stereo partly drawn) [BCY8245, MMAE-PABC-Cit-Val-Glutaryl-BCY8234] (I: [Sar][Sar][Sar][Sar][Sar][Sar][Sar][Sar][Sar][Sar]CP[1Nal][dD]CM[hArg]DWSTP[Hyp]WC-NH2 / II: [ξV][Cit][PABC][ξNMeV]V[X1][Dolaproine]-X2; linker I:11-I:15-I:25 via TATA; linker I:N-II:N via X3)", "values": [{"measurement": "Tumor volume", "setting": "[1]; 3 mpk, biw, iv, day 7", "result": "216 ± 56", "unit": "mm^3"}, {"measurement": "Tumor volume", "setting": "[1]; 3 mpk, biw, iv, day 9", "result": "236 ± 59", "unit": "mm^3"}, {"measurement": "Tumor volume", "setting": "[1]; 3 mpk, biw, iv, day 11", "result": "241 ± 60", "unit": "mm^3"}, {"measurement": "Tumor volume", "setting": "[1]; 3 mpk, biw, iv, day 14", "result": "231 ± 57", "unit": "mm^3"}, {"measurement": "T/C", "setting": "[1]; 3 mpk, biw, day 14", "result": 42.3, "unit": "%"}, {"measurement": "TGI", "setting": "[1]; 3 mpk, biw, day 14", "result": 79.1, "unit": "%"}, {"measurement": "Tumor volume", "setting": "[1]; 3 mpk, biw, day 14, Mean ± SEM (Table 19)", "result": "231 ± 57", "unit": "mm^3"}, {"measurement": "Tumor volume", "setting": "[1]; 3 mpk, qw, iv, day 0 after start of treatment", "result": "149 ± 34", "unit": "mm^3"}, {"measurement": "Tumor volume", "setting": "[1]; 3 mpk, qw, iv, day 2", "result": "160 ± 33", "unit": "mm^3"}, {"measurement": "Tumor volume", "setting": "[1]; 3 mpk, qw, iv, day 4", "result": "191 ± 39", "unit": "mm^3"}, {"measurement": "Tumor volume", "setting": "[1]; 3 mpk, qw, iv, day 7", "result": "215 ± 53", "unit": "mm^3"}, {"measurement": "Tumor volume", "setting": "[1]; 3 mpk, qw, iv, day 9", "result": "242 ± 62", "unit": "mm^3"}, {"measurement": "Tumor volume", "setting": "[1]; 3 mpk, qw, iv, day 11", "result": "259 ± 59", "unit": "mm^3"}, {"measurement": "Tumor volume", "setting": "[1]; 3 mpk, qw, iv, day 14", "result": "271 ± 54", "unit": "mm^3"}, {"measurement": "T/C", "setting": "[1]; 3 mpk, qw, day 14", "result": 49.6, "unit": "%"}, {"measurement": "TGI", "setting": "[1]; 3 mpk, qw, day 14", "result": 69.2, "unit": "%"}, {"measurement": "Tumor volume", "setting": "[1]; 3 mpk, qw, day 14, Mean ± SEM (Table 19)", "result": "271 ± 54", "unit": "mm^3"}, {"measurement": "Tumor volume", "setting": "[1]; 5 mpk, qw, iv, day 0 after start of treatment", "result": "149 ± 18", "unit": "mm^3"}, {"measurement": "Tumor volume", "setting": "[1]; 5 mpk, qw, iv, day 2", "result": "180 ± 11", "unit": "mm^3"}, {"measurement": "Tumor volume", "setting": "[1]; 5 mpk, qw, iv, day 4", "result": "231 ± 33", "unit": "mm^3"}, {"measurement": "Tumor volume", "setting": "[1]; 5 mpk, qw, iv, day 7", "result": "242 ± 34", "unit": "mm^3"}, {"measurement": "Tumor volume", "setting": "[1]; 5 mpk, qw, iv, day 9", "result": "248 ± 40", "unit": "mm^3"}, {"measurement": "Tumor volume", "setting": "[1]; 5 mpk, qw, iv, day 11", "result": "231 ± 37", "unit": "mm^3"}, {"measurement": "Tumor volume", "setting": "[1]; 5 mpk, qw, iv, day 14", "result": "238 ± 40", "unit": "mm^3"}, {"measurement": "T/C", "setting": "[1]; 5 mpk, qw, day 14", "result": 43.6, "unit": "%"}, {"measurement": "TGI", "setting": "[1]; 5 mpk, qw, day 14", "result": 77.5, "unit": "%"}, {"measurement": "Tumor volume", "setting": "[1]; 5 mpk, qw, day 14, Mean ± SEM (Table 19)", "result": "238 ± 40", "unit": "mm^3"}, {"measurement": "anti-tumour activity (in words)", "setting": "[1]; mouse, in vivo", "result": "good anti-tumour activity"}, {"measurement": "TGI", "setting": "[2]; 3 mg/kg biw, day 14", "result": 79.1, "unit": "%"}, {"measurement": "Tumor volume (TV)", "setting": "[2]; 3 mg/kg biw, day 14", "result": 231, "unit": "mm^3"}, {"measurement": "TGI", "setting": "[2]; 3 mg/kg qw, day 14", "result": 69.2, "unit": "%"}, {"measurement": "Tumor volume (TV)", "setting": "[2]; 3 mg/kg qw, day 14", "result": 271, "unit": "mm^3"}, {"measurement": "TGI", "setting": "[2]; 5 mg/kg qw, day 14", "result": 77.5, "unit": "%"}, {"measurement": "Tumor volume (TV)", "setting": "[2]; 5 mg/kg qw, day 14", "result": 238, "unit": "mm^3"}, {"measurement": "Tumor volume", "setting": "[2]; 3 mpk, biw, day 0 after the start of treatment", "result": 148, "unit": "mm^3"}, {"measurement": "Tumor volume", "setting": "[2]; 3 mpk, biw, day 2", "result": 170, "unit": "mm^3"}, {"measurement": "Tumor volume", "setting": "[2]; 3 mpk, biw, day 4", "result": 204, "unit": "mm^3"}, {"measurement": "Tumor volume", "setting": "[2]; 3 mpk, biw, day 7", "result": 216, "unit": "mm^3"}, {"measurement": "Tumor volume", "setting": "[2]; 3 mpk, biw, day 9", "result": 236, "unit": "mm^3"}, {"measurement": "Tumor volume", "setting": "[2]; 3 mpk, biw, day 11", "result": 241, "unit": "mm^3"}, {"measurement": "Tumor volume", "setting": "[2]; 3 mpk, biw, day 14", "result": 231, "unit": "mm^3"}, {"measurement": "T/C", "setting": "[2]; 3 mpk, biw, day 14", "result": 42.3, "unit": "%"}, {"measurement": "TGI", "setting": "[2]; 3 mpk, biw, day 14", "result": 79.1, "unit": "%"}, {"measurement": "Tumor Volume (Mean ± SEM)", "setting": "[2]; 3 mpk, biw, day 14", "result": "231 ± 57", "unit": "mm^3"}, {"measurement": "Tumor volume", "setting": "[2]; 3 mpk, qw, day 0 after the start of treatment", "result": 149, "unit": "mm^3"}, {"measurement": "Tumor volume", "setting": "[2]; 3 mpk, qw, day 2", "result": 160, "unit": "mm^3"}, {"measurement": "Tumor volume", "setting": "[2]; 3 mpk, qw, day 4", "result": 191, "unit": "mm^3"}, {"measurement": "Tumor volume", "setting": "[2]; 3 mpk, qw, day 7", "result": 215, "unit": "mm^3"}, {"measurement": "Tumor volume", "setting": "[2]; 3 mpk, qw, day 9", "result": 242, "unit": "mm^3"}, {"measurement": "Tumor volume", "setting": "[2]; 3 mpk, qw, day 11", "result": 259, "unit": "mm^3"}, {"measurement": "Tumor volume", "setting": "[2]; 3 mpk, qw, day 14", "result": 271, "unit": "mm^3"}, {"measurement": "T/C", "setting": "[2]; 3 mpk, qw, day 14", "result": 49.6, "unit": "%"}, {"measurement": "TGI", "setting": "[2]; 3 mpk, qw, day 14", "result": 69.2, "unit": "%"}, {"measurement": "Tumor Volume (Mean ± SEM)", "setting": "[2]; 3 mpk, qw, day 14", "result": "271 ± 54", "unit": "mm^3"}, {"measurement": "Tumor volume", "setting": "[2]; 5 mpk, qw, day 0 after the start of treatment", "result": 149, "unit": "mm^3"}, {"measurement": "Tumor volume", "setting": "[2]; 5 mpk, qw, day 2", "result": 180, "unit": "mm^3"}, {"measurement": "Tumor volume", "setting": "[2]; 5 mpk, qw, day 4", "result": 231, "unit": "mm^3"}, {"measurement": "Tumor volume", "setting": "[2]; 5 mpk, qw, day 7", "result": 242, "unit": "mm^3"}, {"measurement": "Tumor volume", "setting": "[2]; 5 mpk, qw, day 9", "result": 248, "unit": "mm^3"}, {"measurement": "Tumor volume", "setting": "[2]; 5 mpk, qw, day 11", "result": 231, "unit": "mm^3"}, {"measurement": "Tumor volume", "setting": "[2]; 5 mpk, qw, day 14", "result": 238, "unit": "mm^3"}, {"measurement": "T/C", "setting": "[2]; 5 mpk, qw, day 14", "result": 43.6, "unit": "%"}, {"measurement": "TGI", "setting": "[2]; 5 mpk, qw, day 14", "result": 77.5, "unit": "%"}, {"measurement": "Tumor Volume (Mean ± SEM)", "setting": "[2]; 5 mpk, qw, day 14", "result": "238 ± 40", "unit": "mm^3"}, {"measurement": "tumor response (in words)", "setting": "[2]; mouse, in vivo", "result": "tumor growth is restrained by BCY8245 but the tumor does not undergo regression"}]}]}
